Like-named read-outs stand apart in the source and are kept apart here.
Columns and labels:
Factor XIa = Factor XIa (Homo sapiens (Human), UniProt P03951); experiment: Factor XIa inhibition assay (FLINT) utilizing a fluorophore-quencher pair peptide substrate; format: biochemical; details: 30 min preincubation, kinetic reads over 30 min, read-out: FXIa Kin Inh IC50
Summary of the method: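 FXIa ([…]) preincubated 30 min with compound (11-point 3-fold dilution, top 100 nM, 2% DMSO), then 15 μM quenched FXI Arg146-based peptide added; Tris pH 7.5, CaCl2, BSA, CHAPS. Fluorescence 485/520 nm read kinetically every 5 min over 30 min at RT; IC50 by 4-parameter fit.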

human plasma kallikrein = human plasma kallikrein (Homo sapiens (Human), UniProt P03952); experiment: Kallikrein inhibition assay (FLINT) utilizing a quenched AMC peptide substrate; format: biochemical; details: 30 min preincubation, read-out: Kallikrein Kin Inh IC50
Sequence of human plasma kallikrein (P03952 391-638): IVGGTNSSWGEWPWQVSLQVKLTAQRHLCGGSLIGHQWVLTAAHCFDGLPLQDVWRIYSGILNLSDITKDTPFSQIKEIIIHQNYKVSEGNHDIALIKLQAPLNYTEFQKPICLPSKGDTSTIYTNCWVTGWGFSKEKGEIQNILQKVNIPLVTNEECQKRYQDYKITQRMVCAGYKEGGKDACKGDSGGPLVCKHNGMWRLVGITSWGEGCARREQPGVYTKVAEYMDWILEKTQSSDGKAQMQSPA
Sequence of human plasma kallikrein (P03952 20-390 partner): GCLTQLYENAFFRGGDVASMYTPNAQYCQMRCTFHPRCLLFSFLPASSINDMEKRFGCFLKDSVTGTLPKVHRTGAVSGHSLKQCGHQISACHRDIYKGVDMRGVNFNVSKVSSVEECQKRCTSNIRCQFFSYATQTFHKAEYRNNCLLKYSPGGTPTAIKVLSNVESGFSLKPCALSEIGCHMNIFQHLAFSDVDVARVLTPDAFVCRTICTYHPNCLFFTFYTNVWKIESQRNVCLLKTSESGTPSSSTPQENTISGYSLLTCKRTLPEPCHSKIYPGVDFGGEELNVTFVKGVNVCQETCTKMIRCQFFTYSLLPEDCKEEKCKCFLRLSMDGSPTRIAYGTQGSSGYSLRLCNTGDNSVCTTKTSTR
Summary of the method: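 Enzyme (2 nM final) pre-incubated 30 min at room temperature with compound (11-point, 3-fold, top 1 μM, 2% DMSO), then 50 μM Z-Gly-Pro-Arg-AMC added in Tris pH 7.5 buffer. Kinetic fluorescence 340/440 nm every 5 min over 30 min; IC50 from 4-parameter logistic fit.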

[1] = 5Fam-[…]-K5Tamra substrate 15 μM
[2] = kinetic reads over 30 min, Z-Gly-Pro-Arg-AMC substrate 50 μM
[3] = 5Fam-KLTRAETV-K5Tamra substrate 15 μM

Sequence of Factor XIa (P03951 388-625): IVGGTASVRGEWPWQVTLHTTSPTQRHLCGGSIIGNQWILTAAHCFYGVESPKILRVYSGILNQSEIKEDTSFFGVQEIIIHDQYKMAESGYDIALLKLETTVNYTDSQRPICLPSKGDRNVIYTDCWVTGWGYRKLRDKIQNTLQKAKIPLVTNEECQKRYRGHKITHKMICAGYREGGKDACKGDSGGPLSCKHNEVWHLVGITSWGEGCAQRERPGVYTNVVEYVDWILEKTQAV
Sequence of Factor XIa (P03951 19-387 partner): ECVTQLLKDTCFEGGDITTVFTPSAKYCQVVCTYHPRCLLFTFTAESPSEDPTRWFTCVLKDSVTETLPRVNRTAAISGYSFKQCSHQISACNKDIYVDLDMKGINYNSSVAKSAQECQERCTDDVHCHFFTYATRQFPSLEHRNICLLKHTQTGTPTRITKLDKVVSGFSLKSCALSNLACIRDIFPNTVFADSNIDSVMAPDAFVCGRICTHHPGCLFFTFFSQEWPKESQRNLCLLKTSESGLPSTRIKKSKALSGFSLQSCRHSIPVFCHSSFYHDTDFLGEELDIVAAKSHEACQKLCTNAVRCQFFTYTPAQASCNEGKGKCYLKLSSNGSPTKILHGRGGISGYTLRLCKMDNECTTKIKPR

| Structure (SMILES) | IC50 (Factor XIa; [1]) | IC50 (human plasma kallikrein; [2]) | IC50 (Factor XIa; [3]) | IC50 (human plasma kallikrein; μM, kinetic reads) |
| --- | --- | --- | --- | --- |
| O=C1C=C(c2c(C(F)F)ccc(Cl)c2F)C[C@H]2CC[C@@H](c3ncc(-c4ccnc(CO)c4F)[nH]3)N12 [Example 26, (3S,8aR)-7-(3-Chloro-6-(difluoromethyl)-2-fluorophenyl)-3-(5-(3-fluoro-2-(hydroxymethyl)pyridin-4-yl)-1H-imidazol-2-yl)-2,3,8,8a-tetrahydroindolizin-5(1H)-one] | > 100 nM | 0.27 µM | – | – |
| Nc1nccc(-c2cnc([C@@H]3CC[C@@H]4CC(c5cc(Cl)ccc5-n5cnnn5)=CC(=O)N43)[nH]2)c1F (single isomer, unassigned) [Example 90, (3S*,8aR)-3-(5-(2-amino-3-fluoropyridin-4-yl)-1H-imidazol-2-yl)-7-(5-chloro-2-(1H-tetrazol-1-yl)phenyl)-2,3,8,8a-tetrahydroindolizin-5(1H)-one] | 0.5 nM | 0.0055 µM | – | – |
| O=C(NC12CC(C1)C2)c1nccc(-c2cnc([C@@H]3CC[C@@H]4CC(c5c(-n6cnnn6)ccc(Cl)c5F)=CC(=O)N43)[nH]2)c1F [Example 104, N-(bicyclo[1.1.1]pentan-1-yl)-4-(2-((3S,8aR)-7-(3-chloro-2-fluoro-6-(1H-tetrazol-1-yl)phenyl)-5-oxo-1,2,3,5,8,8a-hexahydroindolizin-3-yl)-1H-imidazol-5-yl)-3-fluoropicolinamide] | – | 0.0354 µM | 16.6 nM | – |
| Cc1nc([C@@H]2CC[C@@H]3CC(c4c(-n5cnnn5)ccc(Cl)c4F)=CC(=O)N32)[nH]c1-c1ccnc(CO)c1F (single isomer, unassigned) [Example 35] | 60.1 nM | 0.245 µM | – | – |
| O=C1C=C(c2c(-n3cnnn3)ccc(Cl)c2F)C[C@H]2CC[C@@H](c3ncc(-c4ccncc4F)[nH]3)N12 [Example 17, (3S,8aR)-7-[3-Chloro-2-fluoro-6-(tetrazol-1-yl)phenyl]-3-[5-(3-fluoro-4-pyridyl)-1H-imidazol-2-yl]-2,3,8,8a-tetrahydro-1H-indolizin-5-one] | – | 0.029 µM | 3 nM | – |
| O=C1C=C(c2c(-n3cnnn3)ccc(Cl)c2F)C[C@@H]2CC[C@@H](c3ncc(-c4ccc5[nH]c(=O)[nH]c5c4)[nH]3)N12 [Example 292, 5-(2-((3S,8aS)-7-(3-Chloro-2-fluoro-6-(1H-tetrazol-1-yl)phenyl)-5-oxo-1,2,3,5,8,8a-hexahydroindolizin-3-yl)-1H-imidazol-5-yl)-1,3-dihydro-2H-benzo[d]imidazol-2-one] | – | 0.0007 µM | 0.3 nM | – |
| O=C1C=C(c2c(-n3cnnn3)ccc(Cl)c2F)CC2CC[C@@H](c3nc(-c4ccnc(OC(F)F)c4)c(F)[nH]3)N12 (stereo in doubt) [Example 3, (S)-7-[3-Chloro-2-fluoro-6-(tetrazol-1-yl)phenyl]-3-[4-[2-(difluoromethoxy)-4-pyridyl]-5-fluoro-1H-imidazol-2-yl]-2,3,8,8a-tetrahydro-1H-indolizin-5-one] | 3.9 nM | 0.0054 µM | – | – |
| [2H]C([2H])([2H])C(=O)Nc1cnccc1-c1c[nH]c([C@@H]2CCC3CC(c4c(-n5cnnn5)ccc(Cl)c4F)=CC(=O)N32)n1 (stereo partly drawn) [Example 256, N-[4-[2-[(3S)-7-[3-Chloro-2-fluoro-6-(tetrazol-1-yl)phenyl]-5-oxo-2,3,8,8a-tetrahydro-1H-indolizin-3-yl]-1H-imidazol-4-yl]-3-pyridyl]-2,2,2-trideuterio-acetamide] | 1.4 nM | 0.0675 µM | – | – |
| CC(C)(O)COc1nccc(-c2cnc([C@@H]3CC[C@@H]4CC(c5c(-n6cnnn6)ccc(Cl)c5F)=CC(=O)N43)[nH]2)c1F [Example 166, (3S,8aR)-7-[3-chloro-2-fluoro-6-(tetrazol-1-yl)phenyl]-3-[5-[3-fluoro-2-(2-hydroxy-2-methyl-propoxy)-4-pyridyl]-1H-imidazol-2-yl]-2,3,8,8a-tetrahydro-1H-indolizin-5-one] | – | 0.0066 µM | 0.8 nM | – |
| Cc1ccc(-n2cnnn2)c(C2=CC(=O)N3[C@H](CC[C@H]3c3ncc(-c4ccnc(CO)c4F)[nH]3)C2)c1F [Example 57, (3S,8aR)-3-(5-(3-fluoro-2-(hydroxymethyl)pyridin-4-yl)-1H-imidazol-2-yl)-7-(2-fluoro-3-methyl-6-(1H-tetrazol-1-yl)phenyl)-2,3,8,8a-tetrahydroindolizin-5(1H)-one] | – | 0.106 µM | 20.2 nM | – |
| CC(O)COc1nccc(-c2cnc([C@@H]3CC[C@@H]4CC(c5c(-n6cnnn6)ccc(Cl)c5F)=CC(=O)N43)[nH]2)c1F (single isomer, unassigned) [Example 28] | – | 0.0094 µM | 1.3 nM | – |
| NC(=O)c1cc(-c2cnc([C@@H]3CC[C@@H]4CC(c5c(-n6cnnn6)ccc(Cl)c5F)=CC(=O)N43)[nH]2)ccn1 (single isomer, unassigned) [Example 206] | – | 0.0095 µM | 10.6 nM | – |
| CCN(CCO)c1nccc(-c2cnc([C@@H]3CC[C@@H]4CC(c5c(-n6cnnn6)ccc(Cl)c5F)=CC(=O)N43)[nH]2)c1F (single isomer, unassigned) [Example 136, (3S,8a*R)-7-(3-chloro-2-fluoro-6-(1H-tetrazol-1-yl)phenyl)-3-(5-(2-(ethyl(2-hydroxyethyl)amino)-3-fluoropyridin-4-yl)-1H-imidazol-2-yl)-2,3,8,8a-tetrahydroindolizin-5(1H)-one] | – | 0.0063 µM | 4.8 nM | – |

More lines, now with the values ahead:

| IC50 (Factor XIa; [1]) | IC50 (human plasma kallikrein; [2]) | IC50 (Factor XIa; [3]) | IC50 (human plasma kallikrein; μM, kinetic reads) | Structure (SMILES) |
| --- | --- | --- | --- | --- |
| – | 0.0024 µM | 0.9 nM | – | O=C(Nc1ccccc1-c1c[nH]c([C@@H]2CCC3CC(c4c(-n5cnnn5)ccc(Cl)c4F)=CC(=O)N32)n1)C1CCCC1 (stereo partly shown) [Example 330] |
| – | 0.0124 µM | 1 nM | – | COC(=O)Nc1ccc(-c2cnc([C@@H]3CCC4CC(c5c(-n6cnnn6)ccc(Cl)c5F)=CC(=O)N43)[nH]2)nc1 (stereo partly drawn) [Example 326, Methyl (6-(2-((3S)-7-(3-Chloro-2-fluoro-6-(1H-tetrazol-1-yl)phenyl)-5-oxo-1,2,3,5,8,8a-hexahydroindolizin-3-yl)-1H-imidazol-5-yl)pyridin-3-yl)carbamate] |
| 0.9 nM | 0.0044 µM | – | – | Cn1c(=O)[nH]c2cc(-c3cnc([C@@H]4CC[C@@H]5CC(c6c(-n7cnnn7)ccc(Cl)c6F)=CC(=O)N54)[nH]3)ccc21 (relative stereo) [Example 303, 5-(24(3S,8aR*)-7-(3-Chloro-2-fluoro-6-(1H-tetrazol-1-yl)phenyl)-5-oxo-1,2,3,5,8,8a-hexahydroindolizin-3-yl)-1H-imidazol-5-yl)-1-methyl-1H-benzo[d]imidazol-2(3H)-one] |
| – | – | 64.1 nM | 2.3 µM | Nc1ccc(-c2cnc([C@H]3CC[C@H]4CC(c5c(-n6cnnn6)ccc(Cl)c5F)=CC(=O)N43)[nH]2)c(F)n1 [Example 357, (3R,8aS)-3-(5-(6-Amino-2-fluoropyridin-3-yl)-1H-imidazol-2-yl)-7-(3-chloro-2-fluoro-6-(1H-tetrazol-1-yl)phenyl)-2,3,8,8a-tetrahydroindolizin-5(1H)-one] |
| – | 0.0462 µM | 77 nM | – | CC(C)Oc1ccccc1-c1cnc([C@@H]2CCC3CC(c4c(-n5cnnn5)ccc(Cl)c4F)=CC(=O)N32)[nH]1 (stereo partly shown) [Example 294] |
| – | 0.0006 µM | 0.2 nM | – | Nc1n[nH]c2cc(-c3cnc([C@@H]4CCC5CC(c6c(-n7cnnn7)ccc(Cl)c6F)=CC(=O)N54)[nH]3)ccc12 (stereo partly drawn) [Example 313, (3S)-3-(5-(3-Amino-1H-indazol-6-yl)-1H-imidazol-2-yl)-7-(3-chloro-2-fluoro-6-(1H-tetrazol-1-yl)phenyl)-2,3,8,8a-tetrahydroindolizin-5(1H)-one] |
| – | 0.0277 µM | 1.4 nM | – | COc1c(-c2cnc(C3CC[C@H]4CC(c5c(-n6cnnn6)ccc(Cl)c5F)=CC(=O)N34)[nH]2)ccnc1N (stereo in doubt) [Example 382, (3R,8aS)-3-(5-(2-amino-3-methoxypyridin-4-yl)-1H-imidazol-2-yl)-7-(3-chloro-2-fluoro-6-(1H-tetrazol-1-yl)phenyl)-2,3,8,8a-tetrahydroindolizin-5(1H)-one] |
| 23.5 nM | 0.0038 µM | – | – | COC(=O)Nc1ccc(-c2cnc([C@@H]3CC[C@H]4CC(c5c(OC(F)F)ccc(Cl)c5F)=CC(=O)N43)[nH]2)cc1 (relative stereo) [Example 320, Methyl (4-(2-((3S,8aS)-7-(3-Chloro-6-(difluoromethoxy)-2-fluorophenyl)-5-oxo-1,2,3,5,8,8a-hexahydroindolizin-3-yl)-1H-imidazol-5-yl)phenyl)carbamate] |
| 202 nM | – | – | 1.3 µM | C[C@H]1C[C@@H](c2ncc(-c3ccc(N)nc3F)[nH]2)N2C(=O)C=C(c3c(-n4cnnn4)ccc(Cl)c3F)C[C@H]12 (relative stereo) [Example 344, (1*S,3S,8a*R)-3-(5-(6-Amino-2-fluoropyridin-3-yl)-1H-imidazol-2-yl)-7-(3-chloro-2-fluoro-6-(1H-tetrazol-1-yl)phenyl)-1-methyl-2,3,8,8a-tetrahydroindolizin-5(1H)-one] |
| – | 0.0565 µM | 36.3 nM | – | O=C1C=C(c2c(-n3cnnn3)ccc(Cl)c2F)C[C@H]2CC[C@@H](c3ncc(-c4cc(F)ncc4Cl)[nH]3)N12 [Example 371, (3S,8aR)-7-(3-chloro-2-fluoro-6-(1H-tetrazol-1-yl)phenyl)-3-(5-(5-chloro-2-fluoropyridin-4-yl)-1H-imidazol-2-yl)-2,3,8,8a-tetrahydroindolizin-5(1H)-one] |

Source: patent US20230295157A1, “3-(1H-IMIDAZOL-2-YL)-2,3,8,8A-TETRAHYDROINDOLIZIN-5(1H)-ONE DERIVATIVES USEFUL AS FACTOR XIA INHIBITORS” (JANSSEN PHARMACEUTICA NV, priority 2020, published 2023)
